This note sets out measurements from patent US7265152B2 (ViroPharma Incorporated, priority 2002, dated 2007).

One assay deals with T1, HCV NS5B (Hepatitis C virus genotype 1b, UniProt Q9WMX2).
T1 construct: fusion protein, of which the carboxyl terminal 21 amino acids were removed to enhance its solubility; His tag (GSHHHHHH); made in house; host or cells: E. coli
The assay can be described thus: Inhibition of viral RNA-dependent RNA polymerase (RdRp), in vitro biochemical assay. Also on record: species or system HCV genotype 1b virus (BB7). Particulars: HCV NS5B RdRp, BB7 (genotype 1b); reported as class symbols; read-out: HCV pol-BB7 IC50. The source says:
The HCV NS5B-directed RdRp activity was established and characterized in a standard in vitro biochemical assay using a purified HCV NS5B protein derived from the consensus sequence of a patient infected with HCV genotype 1b virus (BB7). (See Blight K J et al., Science. 2000, 290:1972-4). The NS5B consensus sequence was cloned and expressed in E. coli as a histidine tagged (GSHHHHHH) fusion protein, of which the carboxyl terminal 21 amino acids were removed to enhance its solubility.
In addition to evaluating their activity in the replicon assay, representative compounds within the scope of the present invention, as shown in examples 1-453 of Table 1, were also evaluated for antiviral activity using this assay. A measure of the inhibitory activity of compounds of the invention may be expressed as IC50 values. IC50 values represent the concentration of the compound at which 50% of the RdRp activity is inhibited. […] These low concentrations of test compounds required to achieve 50% inhibition of the RdRp activity indicate that the compounds of the invention are effective at inhibiting RNA synthesis by viral RdRp enzymes.
Consider `CNC(=O)c1c(-c2ccc(F)cc2)oc2cc(N(CC(C)O)S(C)(=O)=O)c(O)cc12` (centres unmarked) [Example 438, 2-(4-Fluoro-phenyl)-5-hydroxy-6-[(2-hydroxy-propyl)-methanesulfonyl-amino]-benzofuran-3-carboxylic acid methylamide], for which the IC50 is at most 0.5 µM.

In the case of `CNC(=O)c1c(-c2ccc(F)cc2)oc2cc(N(CC(C)O)S(C)(=O)=O)c(OC)cc12` (centres unmarked) [Example 439, 2-(4-Fluoro-phenyl)-6-[(2-hydroxy-propyl)-methanesulfonyl-amino]-5-methoxy-benzofuran-3-carboxylic acid methylamide], the 50% inhibitory concentration (IC50) is at most 0.5 µM.

On to `CCc1cc2c(C(=O)NC)c(-c3ccc(F)cc3)oc2cc1C1CCCN1C(C)=O` (centres unmarked) [Example 440, 6-(1-Acetyl-pyrrolidin-2-yl)-5-ethyl-2-(4-fluoro-phenyl)-benzofuran-3-carboxylic acid methylamide], for which the IC50 is at most 0.5 µM.

On to `CNC(=O)c1c(-c2ccc(F)cc2)oc2cc(C3CCCN3C(=O)C3CC3)c(OC(C)C)cc12` (centres unmarked) [Example 448, 6-(1-Cyclopropanecarbonyl-pyrrolidin-2-yl)-2-(4-fluoro-phenyl)-5-isopropoxy-benzofuran-3-carboxylic acid methylamide], for which the IC50 was at most 0.5 µM.

`CNC(=O)c1c(-c2ccc(F)cc2)oc2cc(-c3nnco3)c(OC)cc12` [Example 449, 2-(4-Fluoro-phenyl)-5-methoxy-6-[1,3,4]oxadiazol-2-yl-benzofuran-3-carboxylic acid methylamide]: the IC50 is at most 0.5 µM.

With `CNC(=O)c1c(-c2ccc(F)cc2)oc2cc(N(C)S(C)(=O)=O)c(-c3cccs3)cc12` [Example 450, 2-(4-Fluoro-phenyl)-6-(methanesulfonyl-methyl-amino)-5-thiophen-2-yl-benzofuran-3-carboxylic acid methylamide], the half-maximal inhibitory concentration (IC50) was at most 0.5 µM.

For the molecule `CNC(=O)c1c(-c2ccc(F)cc2)oc2cc(N(CC(O)c3ccc(F)cc3)S(C)(=O)=O)c(O)cc12` (centres unmarked) [Example 451, 2-(4-Fluoro-phenyl)-6-{[2-(4-fluoro-phenyl)-2-hydroxy-ethyl]-methanesulfonyl-amino}-5-hydroxy-benzofuran-3-carboxylic acid methylamide], the half-inhibitory concentration (IC50) is at most 0.5 µM.

As to `CNC(=O)c1c(-c2ccccc2)oc2ccc(O)cc12` [Example 453, 5-Hydroxy-2-phenyl-benzofuran-3-carboxylic acid methylamide], the half-inhibitory concentration (IC50) is 5 to 30 µM.

The assay is the same for the next values; noted with them: HCV NS5B RdRp, BB7; reported as range class; read-out: HCV pol-BB7 IC50.
As to `CNC(=O)c1c(-c2ccc(F)cc2)oc2cc(OCc3ccccc3)c(OC(C)C)cc12` [Example 194, 6-Benzyloxy-2-(4-fluoro-phenyl)-5-isopropoxy-benzofuran-3-carboxylic acid methylamide], the IC50 was 0.5 to 5 µM.

Staying with this assay, now noted: HCV NS5B RdRp, BB7 genotype 1b; read-out: HCV pol-BB7 IC50.
For `CNC(=O)c1c(-c2ccc(F)cc2)oc2cc(Nc3cc(C)nn3C)c(OC(C)C)cc12` [Example 127, 6-(2,5-Dimethyl-2H-pyrazol-3-ylamino)-2-(4-fluoro-phenyl)-5-isopropoxy-benzofuran-3-carboxylic acid methylamide], the IC50 lay in the range of 5 to 30 µM.

`CNC(=O)c1c(-c2ccc(F)cc2)oc2cc(N3CCOCC3)c(OCc3ccncc3)cc12` [Example 128, 2-(4-Fluoro-phenyl)-6-morpholin-4-yl-5-(pyridin-4-ylmethoxy)-benzofuran-3-carboxylic acid methylamide]: the IC50 is at most 0.5 µM.

Consider `CNC(=O)c1c(-c2ccc(F)cc2)oc2cc(C#N)c(OC(C)C)cc12` [Example 129, 6-Cyano-2-(4-fluoro-phenyl)-5-isopropoxy-benzofuran-3-carboxylic acid methylamide], for which the IC50 was at most 0.5 µM.

Still in this assay, the particulars now being: HCV NS5B polymerase, BB7 (genotype 1b); values given as range classes A-D; read-out: HCV pol-BB7 IC50.
On to `CNC(=O)c1c(-c2ccc(F)cc2)oc2cc(N(C)S(C)(=O)=O)c(OCc3nccn3Cc3ccccc3)cc12` [Example 399, 5-(1-Benzyl-1H-imidazol-2-ylmethoxy)-2-(4-fluoro-phenyl)-6-(methanesulfonyl-methyl-amino)-benzofuran-3-carboxylic acid methylamide], for which the 50% inhibitory concentration (IC50) was at most 0.5 µM.

Regarding `CNC(=O)c1c(-c2ccc(F)cc2F)oc2cc(-c3c(C)noc3C)c(OC)cc12` [Example 400, 2-(2,4-Difluoro-phenyl)-6-(3,5-dimethyl-isoxazol-4-yl)-5-methoxy-benzofuran-3-carboxylic acid methylamide], the IC50 is at most 0.5 µM.

As to `CNC(=O)c1c(-c2ccc(F)cc2)oc2cc(C(C)=O)ccc12` [Example 411, 6-Acetyl-2-(4-fluoro-phenyl)-benzofuran-3-carboxylic acid methylamide], the half-maximal inhibitory concentration (IC50) is 0.5 to 5 µM.

For `CNC(=O)c1c(-c2ccc(F)cc2)oc2cc(N(C)S(C)(=O)=O)c(OCC(C)(C)O)cc12` [Example 412, 2-(4-Fluoro-phenyl)-5-(2-hydroxy-2-methyl-propoxy)-6-(methanesulfonyl-methyl-amino)-benzofuran-3-carboxylic acid methylamide], the half-inhibitory concentration (IC50) was at most 0.5 µM.

As to `CCN(CC)C(=O)COc1cc2c(C(=O)NC)c(-c3ccc(F)cc3)oc2cc1N(C)S(C)(=O)=O` [Example 413, 5-Diethylcarbamoyl-methoxy-2-(4-fluoro-phenyl)-6-(methanesulfonyl-methyl-amino)-benzofuran-3-carboxylic acid methylamide], the concentration for half-maximal inhibition (IC50) was at most 0.5 µM.

Turning to `CCOc1cc2c(C(=O)NC)c(-c3ccc(F)cc3)oc2cc1-c1c(C)noc1C` [Example 414, 6-(3,5-Dimethyl-isoxazol-4-yl)-5-ethoxy-2-(4-fluoro-phenyl)-benzofuran-3-carboxylic acid methylamide], the IC50 was at most 0.5 µM.

For the molecule `CNC(=O)c1c(-c2ccc(F)cc2)oc2cc(CN3CC(O)=C(C#N)C3=O)c(OC)cc12` [Example 431, 6-(3-Cyano-4-hydroxy-2-oxo-2,5-dihydro-pyrrol-1-ylmethyl)-2-(4-fluoro-phenyl)-5-methoxy-benzofuran-3-carboxylic acid methylamide], the 50% inhibitory concentration (IC50) was at most 0.5 µM.

For the molecule `CNC(=O)c1c(-c2ccc(F)cc2)oc2cc(-c3c(C)noc3C)c(OCCN3CCOCC3)cc12` [Example 433, 6-(3,5-Dimethyl-isoxazol-4-yl)-2-(4-fluoro-phenyl)-5-(2-morpholin-4-yl-ethoxy)-benzofuran-3-carboxylic acid methylamide], the IC50 is at most 0.5 µM.

Regarding `CNC(=O)c1c(-c2ccc(F)cc2)oc2cc(-c3c(C)noc3C)c(OCCCN3CCCCC3)cc12` [Example 434, 6-(3,5-Dimethyl-isoxazol-4-yl)-2-(4-fluoro-phenyl)-5-(3-piperidin-1-yl-propoxy)-benzofuran-3-carboxylic acid methylamide], the IC50 lay within 0.5 to 5 µM.

The assay is the same for the next values; noted with them: purified His-tagged NS5B (BB7), carboxyl terminal 21 amino acids removed; read-out: HCV pol-BB7 IC50.
As for `CNC(=O)c1c(-c2ccccc2)oc2ccc(OC(F)(F)F)cc12` [Example 2, 2-Phenyl-5-trifluoromethoxy-benzofuran-3-carboxylic acid methylamide], the IC50 lay in the range of 0.5 to 5 µM.

Turning to `CNC(=O)c1c(-c2ccc(F)cc2)oc2ccc(OCC(F)(F)F)cc12` [Example 64, 2-(4-Fluoro-phenyl)-5-(2,2,2-trifluoro-ethoxy)-benzofuran-3-carboxylic acid methylamide], the half-inhibitory concentration (IC50) is 0.5 to 5 µM.
